# Measurements taken from patent US7375083B2, “Pharmaceutical compositions for prevention of overdose or abuse” (Shire LLC, priority 2003, dated 2008).
# Where two headings read alike, the source gives them in different places.
# Columns and labels:
# [1] = Intravenous bioavailability in rats, plasma d-amphetamine by ELISA; details: relative to amphetamine
# [2] = Kitchen tests: release of amphetamine by water, acid, base and heat; details: heated to boiling for 20-60 minutes
# [3] = Oral pharmacokinetics in rats, plasma d-amphetamine by ELISA; details: Oral, relative to amphetamine (first value where two are given)
# [4] = Oral bioavailability of hydrocodone conjugates in rats, LC/MS/MS; details: male, Sprague-Dawley, rat, plasma, po
# [5] = cited from earlier work; for Blood level: 12.5 mg dose
# [6] = Intranasal bioavailability of hydrocodone conjugates in rats, LC/MS/MS; details: male, Sprague-Dawley, rat, plasma, 1 mg/kg
# [7] = Intravenous bioavailability of hydrocodone conjugates in rats, LC/MS/MS
# [8] = Intranasal plasma levels of oxycodone conjugates in rats, ELISA; details: intranasal 2 mg/kg
# [9] = Oral plasma levels of oxycodone conjugates in rats, ELISA; details: oral 2 mg/kg
# [10] = Intranasal bioavailability of oxycodone conjugates in rats, LC/MS/MS; details: 1 mg/kg dose
# [11] = Intravenous bioavailability of oxycodone conjugates in rats, LC/MS/MS; details: 1 mg/kg dose; for AUC 0-1 h / AUC Percent OC / Cmax / Cmax Percent OC: oxycodone plus oxymorphone
# [12] = intravenous, 1 mg/kg hydrocodone base content
# [13] = male, Sprague-Dawley, rat, plasma, iv, 1 mg/kg
compound,measurement,setting,value
CC(Cc1ccccc1)NC(=O)C(N)Cc1ccccc1 (centres unmarked) [F-Amp],Percent AUC,[1],87%
same,Percent Cmax,[1],89%
"CC(Cc1ccccc1)NC(=O)CNC(=O)CNC(=O)CN (centres unmarked) [Gly3-Amp, 2-Amino-N-({[(1-methyl-2-phenyl-ethylcarbomyl)-methyl]-carbomyl}-methyl)-acetamide]",amphetamine detected after treatment: Baking Powder,[2],0%
same,amphetamine detected after treatment: Baking Soda,[2],0%
same,amphetamine detected after treatment: Tap Water,[2],0%
same,amphetamine detected after treatment: Vinegar,[2],0%
CC(Cc1ccccc1)NC(=O)C(O)C(O)C(O)C(O)CO (centres unmarked) [Gulonate-Amp],Percent AUC,[1],3%
same,Percent Cmax,[1],5%
same,Percent AUC,[3],1%
same,Percent Cmax,[3],1%
"COc1ccc2c3c1O[C@H]1C(=O)CC[C@H]4[C@@H](C2)N(C)CC[C@]314 [Hydrocodone, reference compound]",AUC,[4]; 1 mg/kg,45.1 ng·h/mL
same,Cmax,[4]; 1 mg/kg,114 ng/mL
same,concentration at 0 h,[4]; 1 mg/kg,0 ng/mL
same,concentration at 0.1 h,[4]; 1 mg/kg,114 ng/mL
same,concentration at 0.5 h,[4]; 1 mg/kg,14.3 ng/mL
same,concentration at 1 h,[4]; 1 mg/kg,7 ng/mL
same,concentration at 2 h,[4]; 1 mg/kg,2.6 ng/mL
same,concentration at 4 h,[4]; 1 mg/kg,1 ng/mL
same,AUC,[4]; 2 mg/kg,38.2 ng·h/mL
same,Cmax,[4]; 2 mg/kg,60.3 ng/mL
same,concentration at 0 h,[4]; 2 mg/kg,0 ng/mL
same,concentration at 0.1 h,[4]; 2 mg/kg,60.3 ng/mL
same,concentration at 0.5 h,[4]; 2 mg/kg,15.6 ng/mL
same,concentration at 1 h,[4]; 2 mg/kg,12.9 ng/mL
same,concentration at 2 h,[4]; 2 mg/kg,3.4 ng/mL
same,concentration at 4 h,[4]; 2 mg/kg,1.3 ng/mL
same,AUC,[4]; 5 mg/kg,234 ng·h/mL
same,Cmax,[4]; 5 mg/kg,629 ng/mL
same,concentration at 0 h,[4]; 5 mg/kg,0 ng/mL
same,concentration at 0.1 h,[4]; 5 mg/kg,629 ng/mL
same,concentration at 0.5 h,[4]; 5 mg/kg,74.3 ng/mL
same,concentration at 1 h,[4]; 5 mg/kg,80.8 ng/mL
same,concentration at 2 h,[4]; 5 mg/kg,18.4 ng/mL
same,concentration at 4 h,[4]; 5 mg/kg,4.9 ng/mL
same,AUC,[4]; 25 mg/kg,419 ng·h/mL
same,Cmax,[4]; 25 mg/kg,409 ng/mL
same,concentration at 0 h,[4]; 25 mg/kg,0 ng/mL
same,concentration at 0.1 h,[4]; 25 mg/kg,409 ng/mL
same,concentration at 0.5 h,[4]; 25 mg/kg,154 ng/mL
same,concentration at 1 h,[4]; 25 mg/kg,86.2 ng/mL
same,concentration at 2 h,[4]; 25 mg/kg,83.3 ng/mL
same,concentration at 4 h,[4]; 25 mg/kg,57.8 ng/mL
same,Therapeutic plasma concentration,[5]; in vivo,1 to 30 ng/mL
same,Toxic plasma concentration,[5]; in vivo,greater than 100 ng/mL
same,AUC,[6]; iv,74.7 ng·h/mL
same,Cmax,[6]; iv,543 ng/mL
same,concentration at 0 min,[6]; other: intranasal,0 ng/mL
same,concentration at 5 min,[6]; other: intranasal,441 ng/mL
same,concentration at 15 min,[6]; other: intranasal,543 ng/mL
same,concentration at 30 min,[6]; other: intranasal,227 ng/mL
same,concentration at 60 min,[6]; other: intranasal,96 ng/mL
same,"HC (hydrocodone) AUC, Percent relative to hydrocodone bitartrate",[7]; [12],100%
same,"HC (hydrocodone) Cmax, Percent relative to hydrocodone bitartrate",[7]; [12],100%
same,AUC,[7]; [13],24.1 ng·h/mL
same,Cmax,[7]; [13],43 ng/mL
C[C@@H](Cc1ccccc1)NC(=O)[C@@H](N)CCCCN [K-Amp],Percent AUC,[1],3%
same,Percent Cmax,[1],3%
same,Percent AUC,[3],98%
same,Percent Cmax,[3],55%
COc1ccc2c3c1O[C@H]1C(OC(=O)[C@@H](NC(=O)[C@@H]4CCCN4C(=O)[C@@H](N)CCC(=O)O)C(C)C)=CC[C@@]4(OC(=O)[C@@H](NC(=O)[C@@H]5CCCN5C(=O)[C@@H](N)CCC(=O)O)C(C)C)[C@@H](C2)N(C)CC[C@]314 [[Glu-Pro-Val]2-OC],% AUC,[8],56%
same,% Cmax,[8],65%
same,% AUC,[9],142%
same,% Cmax,[9],134%
COc1ccc2c3c1O[C@H]1C(OC(=O)[C@@H](NC(=O)[C@H](Cc4ccc(O)cc4)NC(=O)[C@@H](N)CCC(=O)O)C(C)C)=CC[C@@]4(OC(=O)[C@@H](NC(=O)[C@H](Cc5ccc(O)cc5)NC(=O)[C@@H](N)CCC(=O)O)C(C)C)[C@@H](C2)N(C)CC[C@]314 [[Glu-Tyr-Val]2-OC],% AUC,[8],18%
same,% Cmax,[8],20%
same,% AUC,[9],115%
same,% Cmax,[9],103%
COc1ccc2c3c1O[C@H]1C(OC(=O)[C@@H](NC(=O)[C@H](CCC(=O)O)NC(=O)CN)C(C)C)=CC[C@@]4(OC(=O)[C@@H](NC(=O)[C@H](CCC(=O)O)NC(=O)CN)C(C)C)[C@@H](C2)N(C)CC[C@]314 [[Gly-Glu-Val]2-OC],% AUC,[8],29%
same,% Cmax,[8],48%
same,% AUC,[9],93%
same,% Cmax,[9],61%
COc1ccc2c3c1O[C@H]1C(OC(=O)[C@@H](NC(=O)[C@H](Cc4ccc(O)cc4)NC(=O)CN)C(C)C)=CC[C@@]4(OC(=O)[C@@H](NC(=O)[C@H](Cc5ccc(O)cc5)NC(=O)CN)C(C)C)[C@@H](C2)N(C)CC[C@]314 [[Gly-Tyr-Val]2-OC],% AUC,[8],56%
same,% Cmax,[8],54%
same,% AUC,[9],92%
same,% Cmax,[9],99%
CC[C@H](C)[C@H](N)C(=O)N[C@@H](Cc1ccc(O)cc1)C(=O)N[C@H](C(=O)OC1=CC[C@@]2(OC(=O)[C@@H](NC(=O)[C@H](Cc3ccc(O)cc3)NC(=O)[C@@H](N)[C@@H](C)CC)C(C)C)[C@H]3Cc4ccc(OC)c5c4[C@@]2(CCN3C)[C@H]1O5)C(C)C [[Ile-Tyr-Val]2-OC],% AUC,[8],3%
same,% Cmax,[8],4%
same,% AUC,[9],71%
same,% Cmax,[9],82%
COc1ccc2c3c1O[C@H]1C(OC(=O)[C@@H](NC(=O)[C@H](Cc4ccc(O)cc4)NC(=O)[C@@H](N)CC(C)C)C(C)C)=CC[C@@]4(OC(=O)[C@@H](NC(=O)[C@H](Cc5ccc(O)cc5)NC(=O)[C@@H](N)CC(C)C)C(C)C)[C@@H](C2)N(C)CC[C@]314 [[Leu-Tyr-Val]2-OC],% AUC,[8],4%
same,% Cmax,[8],5%
same,% AUC,[9],131%
same,% Cmax,[9],120%
"COc1ccc2c3c1O[C@H]1C(OC(=O)[C@H](CC(C)C)NC(=O)[C@@H]4CCCN4C(=O)[C@@H]4CCCN4)=CC[C@@]4(OC(=O)[C@H](CC(C)C)NC(=O)[C@@H]5CCCN5C(=O)[C@@H]5CCCN5)[C@@H](C2)N(C)CC[C@]314 [[PPL]2-OC, [PPL]2-Oxycodone]",Oxycodone plus oxymorphone level at 5 Minutes,[10],1380
same,Oxycodone plus oxymorphone level at 15 Minutes,[10],499
same,Oxycodone plus oxymorphone level at 30 Minutes,[10],390
same,Oxycodone plus oxymorphone level at 60 Minutes,[10],98
same,AUC Percent OC,[10]; oxycodone plus oxymorphone,61%
same,Cmax Percent OC,[10]; oxycodone plus oxymorphone,65%
same,Oxycodone plus oxymorphone level at 5 Minutes,[11],22
same,Oxycodone plus oxymorphone level at 15 Minutes,[11],19
same,Oxycodone plus oxymorphone level at 30 Minutes,[11],19
same,Oxycodone plus oxymorphone level at 60 Minutes,[11],43
same,AUC 0-1 h,[11],24 ng·h/mL
same,AUC Percent OC,[11],29%
same,Cmax,[11],43 ng/mL
same,Cmax Percent OC,[11],43%
COc1ccc2c3c1O[C@H]1C(OC(=O)[C@@H](NC(=O)[C@H](CCC(=O)O)NC(=O)[C@@H]4CCCN4)C(C)C)=CC[C@@]4(OC(=O)[C@@H](NC(=O)[C@H](CCC(=O)O)NC(=O)[C@@H]5CCCN5)C(C)C)[C@@H](C2)N(C)CC[C@]314 [[Pro-Glu-Val]2-OC],% AUC,[8],34%
same,% Cmax,[8],46%
same,% AUC,[9],90%
same,% Cmax,[9],82%
COc1ccc2c3c1O[C@H]1C(OC(=O)[C@@H](NC(=O)CNC(=O)[C@@H](N)CO)C(C)C)=CC[C@@]4(OC(=O)[C@@H](NC(=O)CNC(=O)[C@@H](N)CO)C(C)C)[C@@H](C2)N(C)CC[C@]314 [[Ser-Gly-Val]2-OC],% AUC,[8],64%
same,% Cmax,[8],73%
same,% AUC,[9],90%
same,% Cmax,[9],92%
CC(N)Cc1ccccc1 (centres unmarked) [amphetamine],Steady-state blood level,[5]; addicts orally consuming an average of 1000 mg per day,2000 to 3000 ng/mL
same,Blood level at which peripheral effects (increased heart rate) start,[5]; in vivo,20 ng/mL
same,Peak blood concentration,"[5]; single oral dose of 10 mg, 2 hours",35 ng/mL
CN[C@@H](C)Cc1ccccc1 [methamphetamine],Urine concentration,"[5]; 10 mg, first 24 hours","500-4,000 ng/mL"
same,Blood level,[5]; 6 hours,about 16 ng/mL
same,Blood level,[5]; 24 hours,about 10 ng/mL
same,"Amphetamine concentration of methamphetamine abusers, average",[5]; abusers,"1,800 ng/mL"
same,"Methamphetamine concentration of methamphetamine abusers, average",[5]; abusers,"14,200 ng/mL"
same,Amphetamine concentration of methamphetamine abusers,"[5]; abusers, range","1,000-9,000 ng/mL"
same,Methamphetamine concentration of methamphetamine abusers,"[5]; abusers, range","2,400-33,300 ng/mL"
same,Estimated lethal dose,[5]; adults,1 g
same,Estimated lethal dose,[5]; children,0.1 g
same,Maximum blood concentration,"[5]; single dose of 10 mg, one hour",30 ng/mL
Oxycodone Bitartrate,Oxycodone plus oxymorphone level at 5 Minutes,[10],2128
same,Oxycodone plus oxymorphone level at 15 Minutes,[10],1003
same,Oxycodone plus oxymorphone level at 30 Minutes,[10],688
same,Oxycodone plus oxymorphone level at 60 Minutes,[10],278
same,AUC 0-1 h,[10]; oxycodone plus oxymorphone,428 ng·h/mL
same,AUC Percent OC,[10]; oxycodone plus oxymorphone,100%
same,Cmax,[10]; oxycodone plus oxymorphone,2128 ng/mL
same,Cmax Percent OC,[10]; oxycodone plus oxymorphone,100%
same,Oxycodone plus oxymorphone level at 5 Minutes,[11],99
same,Oxycodone plus oxymorphone level at 15 Minutes,[11],104
same,Oxycodone plus oxymorphone level at 30 Minutes,[11],94
same,Oxycodone plus oxymorphone level at 60 Minutes,[11],51
same,AUC 0-1 h,[11],82 ng·h/mL
same,AUC Percent OC,[11],100%
same,Cmax,[11],99 ng/mL
same,Cmax Percent OC,[11],100%
